Patent US20090238808A1, “Process for the identification of novel enzyme interacting compounds” (priority 2005, published 2009)

Assays:
Assay in all cases: Kinobeads elution with test compound, mouse brain lysate, MS
Type in all cases: binding
Settings in all cases: kinase released from kinobeads by specific elution
CaMK2a = biological target: T1, CaMK2a (Mus musculus, UniProt P11798)
T1 construct: […]; from tissue; host or cells: mouse brain
Description: (§1) This example illustrates competitive elution of proteins bound to kinobeads with non-modified test compounds (see particularly the fourth aspect of the invention). The kinobeads (as described in example 1) were contacted with mouse brains lysate, bound proteins were eluted with various test compounds and the released proteins were analysed by mass spectrometry.
(§2) The kinobeads were contacted with mouse brain lysate under conditions that allow the binding of the proteins in the lysate to the ligands. The binding conditions were close to physiological by choosing suitable buffer conditions preserving the function of the proteins. After removing non-captured proteins through a gentle washing procedure the bound proteins were contacted with a test compound for protein elution.
(§3) Various test compounds (see section 2.7) were used to release bound proteins following these steps:
(§4) 1. Resuspend beads with bound proteins (section 2.4) in 1×DP buffer/0.2% NP-40 as 1:3 slurry (volume/volume). 2. Transfer 20 μl the 1:3 slurry into MoBiTech columns (equivalent to 5 μl of beads). 3. Place the column into an Eppendorf tube and centrifuge it for 15 seconds at 800 rpm at 4° C. Close columns with lower lid. 4. Add 10 μl elution buffer containing 1.0 mM of the test compound (concentration ranges of 0.1 to 1.0 mM are suitable). As a control use elution buffer containing 2% DMSO or 2% DMF dependent on the solvent used for dissolving the test compound. Close column with upper lid. 5. Incubate for 30 minutes at 4° C. in an Eppendorf incubator at 700 rpm. 6. Open column (first top, then bottom), put column back into siliconized tube (SafeSeal Microcentrifuge Tubes, cat. no 11270, Sorenson BioScience, Inc.). To harvest the eluate centrifuge 2 minutes at 2.000 rpm in table top centrifuge at room temperature. The typical volume of the eluate is approximately 15 μl. 7. Add 5 μl 4× NuPAGE SDS Sample Buffer (Invitrogen, NP0007) containing 100 mM DTT (DTT has to be added just prior to use). 8. Incubate for 30 minutes at 50° C. 9. Add 1/10 volume of 200 mg/ml iodoacetamide, incubate for 30 min at room temperature, protect from light. This reaction leads to the alkylation of cysteines for mass spectrometry. 10. Before loading samples onto the gel, centrifuge samples for 5 minutes at 15.000 rpm in order to remove precipitates. 11. For protein separation apply 10 μl sample to NuPAGE 4-12% Bis-Tris gel (Invitrogen, NPO335). 2.6 Preparation of Stock Solutions used in this Protocol
(§5) Search criteria varied depending on which mass spectrometer was used for the analysis.

EphB2 = biological target: T2, EphB2 (Mus musculus, UniProt P54763)
T2 sequence (P54763 19-986): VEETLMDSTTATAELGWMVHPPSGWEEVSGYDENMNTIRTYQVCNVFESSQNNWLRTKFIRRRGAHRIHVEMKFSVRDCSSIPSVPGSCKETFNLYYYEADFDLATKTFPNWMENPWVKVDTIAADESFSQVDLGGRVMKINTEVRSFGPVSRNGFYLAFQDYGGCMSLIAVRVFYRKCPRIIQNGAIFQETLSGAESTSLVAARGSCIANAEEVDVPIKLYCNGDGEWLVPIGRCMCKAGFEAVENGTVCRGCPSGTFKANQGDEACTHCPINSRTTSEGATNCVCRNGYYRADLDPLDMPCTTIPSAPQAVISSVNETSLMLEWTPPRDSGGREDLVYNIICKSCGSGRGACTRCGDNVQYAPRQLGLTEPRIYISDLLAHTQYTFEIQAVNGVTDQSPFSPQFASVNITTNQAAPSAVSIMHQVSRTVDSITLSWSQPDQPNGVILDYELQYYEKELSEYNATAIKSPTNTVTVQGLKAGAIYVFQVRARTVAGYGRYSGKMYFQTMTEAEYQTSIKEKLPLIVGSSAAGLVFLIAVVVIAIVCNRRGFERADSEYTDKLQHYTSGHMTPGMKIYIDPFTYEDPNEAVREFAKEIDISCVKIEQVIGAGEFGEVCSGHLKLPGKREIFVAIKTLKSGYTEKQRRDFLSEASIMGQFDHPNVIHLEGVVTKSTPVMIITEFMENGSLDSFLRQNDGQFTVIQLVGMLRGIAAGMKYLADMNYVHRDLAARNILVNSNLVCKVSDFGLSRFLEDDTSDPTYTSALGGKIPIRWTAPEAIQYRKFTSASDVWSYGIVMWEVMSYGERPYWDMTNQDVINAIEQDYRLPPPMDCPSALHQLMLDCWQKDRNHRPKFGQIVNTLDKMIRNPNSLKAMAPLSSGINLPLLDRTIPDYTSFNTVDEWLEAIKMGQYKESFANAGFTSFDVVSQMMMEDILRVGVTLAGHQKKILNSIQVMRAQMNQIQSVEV
Description: as §1, §2, §3, §4, §5

GSK3Aps = biological target: T3, GSK3Aps (Mus musculus, UniProt Q2NL51)
T3 construct: from tissue; host or cells: mouse brain
Description: as §1, §2, §3, §4, §5

CaMK2b = CaMK2b (Mus musculus, UniProt P28652)
Description: as §1, §2, §3, §4, §5

Sequence of CaMK2b (P28652 whole entry): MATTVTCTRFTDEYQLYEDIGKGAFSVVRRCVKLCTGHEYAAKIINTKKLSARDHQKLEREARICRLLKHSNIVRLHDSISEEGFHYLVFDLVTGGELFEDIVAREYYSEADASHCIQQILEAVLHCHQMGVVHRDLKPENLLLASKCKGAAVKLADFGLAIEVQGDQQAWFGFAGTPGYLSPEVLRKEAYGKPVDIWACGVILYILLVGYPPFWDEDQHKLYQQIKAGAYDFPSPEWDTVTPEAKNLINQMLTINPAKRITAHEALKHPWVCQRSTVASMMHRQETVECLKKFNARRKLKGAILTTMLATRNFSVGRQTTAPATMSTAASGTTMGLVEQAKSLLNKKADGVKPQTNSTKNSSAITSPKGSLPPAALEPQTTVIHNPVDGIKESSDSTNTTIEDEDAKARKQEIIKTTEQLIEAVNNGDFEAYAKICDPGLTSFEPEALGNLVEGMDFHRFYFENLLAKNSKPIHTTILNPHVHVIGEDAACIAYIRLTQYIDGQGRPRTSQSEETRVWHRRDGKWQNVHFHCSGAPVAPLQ
T1 sequence (P11798 whole entry): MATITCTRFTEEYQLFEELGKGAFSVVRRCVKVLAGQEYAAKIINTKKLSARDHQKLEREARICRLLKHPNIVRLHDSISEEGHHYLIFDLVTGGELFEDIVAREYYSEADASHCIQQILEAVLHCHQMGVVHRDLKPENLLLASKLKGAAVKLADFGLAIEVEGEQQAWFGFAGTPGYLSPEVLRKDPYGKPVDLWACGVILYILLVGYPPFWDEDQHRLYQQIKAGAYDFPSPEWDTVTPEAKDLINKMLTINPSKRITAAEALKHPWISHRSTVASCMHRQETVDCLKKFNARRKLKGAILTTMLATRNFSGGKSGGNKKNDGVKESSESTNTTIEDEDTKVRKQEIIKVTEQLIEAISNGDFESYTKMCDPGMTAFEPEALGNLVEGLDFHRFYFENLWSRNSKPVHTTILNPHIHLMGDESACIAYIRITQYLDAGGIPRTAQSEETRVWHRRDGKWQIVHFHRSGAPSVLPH
T3 sequence (Q2NL51 2-490 limits assumed): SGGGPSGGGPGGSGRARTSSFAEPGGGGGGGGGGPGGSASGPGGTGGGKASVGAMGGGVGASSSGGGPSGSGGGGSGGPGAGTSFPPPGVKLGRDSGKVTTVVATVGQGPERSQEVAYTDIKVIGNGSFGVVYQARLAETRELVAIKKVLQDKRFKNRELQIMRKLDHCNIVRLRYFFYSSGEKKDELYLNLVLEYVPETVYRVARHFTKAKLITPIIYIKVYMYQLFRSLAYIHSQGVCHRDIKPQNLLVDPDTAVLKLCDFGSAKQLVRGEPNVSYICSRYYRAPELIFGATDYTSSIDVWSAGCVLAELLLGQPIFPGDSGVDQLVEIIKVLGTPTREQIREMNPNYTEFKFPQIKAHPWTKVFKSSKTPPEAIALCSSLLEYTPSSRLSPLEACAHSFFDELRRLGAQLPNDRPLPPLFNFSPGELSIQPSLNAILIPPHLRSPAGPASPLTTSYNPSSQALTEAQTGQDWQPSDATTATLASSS

mass spectrometry score, CaMK2a (CaMK2a)	number of identified peptides, CaMK2a (CaMK2a)	mass spectrometry score, EphB2 (EphB2)	number of identified peptides, EphB2 (EphB2)	mass spectrometry score, GSK3Aps (GSK3Aps)	number of identified peptides, GSK3Aps (GSK3Aps)	mass spectrometry score, CaMK2b (CaMK2b)	number of identified peptides, CaMK2b (CaMK2b)	SMILES
978	27	1334	30	357	6	679	16	CC(C)[C@H](CO)Nc1nc(Nc2ccc(C(=O)O)c(Cl)c2)c2ncn(C(C)C)c2n1 [Purvalanol B, reference compound]
966	43	149	5	635	27	685	30	NCc1ccc(Nc2ncc(F)c(Nc3ccccc3)n2)cc1 [CZC00008004]
786	74	437	19	585	77	615	75	CCCCCCCCCCCCOS(=O)(=O)[O-].[Na+] [SDS]
513	11	1004	22	154	3	499	14	Cn1c(=O)c(-c2c(Cl)cccc2Cl)cc2cnc(Nc3ccc(CN)cc3)cc21 [CZC7324]

SMILES	mass spectrometry score, CaMK2a (CaMK2a)	number of identified peptides, CaMK2a (CaMK2a)	mass spectrometry score, EphB2 (EphB2)	number of identified peptides, EphB2 (EphB2)	mass spectrometry score, GSK3Aps (GSK3Aps)	number of identified peptides, GSK3Aps (GSK3Aps)	mass spectrometry score, CaMK2b (CaMK2b)	number of identified peptides, CaMK2b (CaMK2b)
CNC1CC2OC(C)(C1OC)n1c3ccccc3c3c4c(c5c6ccccc6n2c5c31)C(=O)NC4 (stereo not shown) [CZC9280]	1027	69	114	4	868	47	1182	72
